# Legend:
# Format in all cases: in vivo
# [1] = tested on: Two-spotted Spider Mite (Tetranychus urticae); experiment: Insecticidal test for two-spotted spider mite, ovicide method; parameters: key: A: 90–100; B: 80–89; C: 70–79; D: 60–69; E: 50–59; F: less than 50; G: Inactive; conditions: cotton leaf discs, 6 days
# Method: Insecticidal Test for Two-spotted Spider Mite (Tetranychus urticae)
# Ten adult female two-spotted spider mites were placed on eight 2.2 cm leaf discs of cotton leaf, allowed to oviposit over 24 hours, and thereafter removed. […] Discs were placed on an agar substrate and held at 24° C. and 90% RH for 6 days.
# [2] = tested on: Sweetpotato Whitefly (Bemisia tabacia); experiment: Insecticidal test for sweetpotato whitefly, spray on cotton plants; parameters: key: A: 90–100; B: 80–89; C: 70–79; D: 60–69; E: 50–59; F: less than 50; G: Inactive; conditions: 200 ppm spray, 13 days, large nymphs
# Method: Insecticidal Test for Sweetpotato Whitefly (Bemisia tabacia)
# Four mg of each test compound was dissolved by adding 4 mL of a 90:10 acetone:ethanol solvent mixture to the vial containing the sample compound. This solution was added to 16 mL of water containing 0.05% Tween 20 surfactant to produce 20 mL of an 200 ppm spray solution.
# Five-week-old cotton plants reared in a greenhouse were stripped of all foliage except for the two uppermost true leaves that were greater than 5 cm in diameter. These plants were then placed into a laboratory colony of whiteflies for two days for oviposition by the colony females. All whiteflies were then removed from the test plants with pressurized air. The spray solution was then applied to the test plants with a hand-held syringe fitted with hollow cone nozzle. One mL spray solution was applied to each leaf top and bottom for a total of 4 mL per plant. Four replications of each test compound utilized a total of 16 mL spray solution. Plants were air dried and then placed in a holding chamber (28° C. and 60% RH) for 13 days. Compound efficacy was evaluated by counting, under an illuminated magnifying glass, the number of large nymphs (3rd–4th instar) per leaf.
# Percent control based on reduction of large nymphs of a test compound compared to solution-only (no test compound) sprayed plants is reported in Tables 1–4.
# [3] = tested on: Cotton Aphid (Aphis gossypii); experiment: Insecticidal test for cotton aphid, spray on infested squash cotyledons; conditions: 50 ppm spray, 3 days
# Method: Insecticidal Test for Cotton Aphid (Aphis gossypii)
# To prepare spray solutions, 1 mg of each test compound was dissolved into 1 mL of a 90:10 acetone:ethanol solvent. This 1 mL of chemical solution was added to 19 mL of water containing 0.05% Tween 20 surfactant to produce a 50 ppm spray solution.
# Squash cotyledons were infested with cotton aphid (all life stages) 16–20 hours prior to application of spray solution. The solution was sprayed on both sides of each infested squash cotyledon (0.5 mL×2 each side) with a sweeping action until runoff. The plants were allowed to air dry and held for 3 days in a controlled room at 26° C. and 40% RH after which time the test was graded. Grading was by actual count using a dissecting microscope and comparison of test counts to the untreated check. Results are given in Tables 1–4 as percent control based on population reduction versus the untreated.
# [4] = tested on: Tobacco Budworm (Heliothis virescens); experiment: Insecticidal test for tobacco budworm, treated cotton cotyledon leaf disc; parameters: key: A: 90–100; B: 80–89; C: 70–79; D: 60–69; E: 50–59; F: less than 50; G: Inactive; conditions: cotton cotyledon leaf-dip, 2nd instar larvae, 5 days
# From the text: (§1) The compounds are useful for reducing populations of insects and mites and are useful in a method of inhibiting an insect or mite population which comprises applying to a locus of the insect or mite an effective insect- or mite-inactivating amount of a compound of formula (1). The “locus” of insects or mites is a term used herein to refer to the environment in which the insects or mites live or where their eggs are present, including the air surrounding them, the food they eat, or objects which they contact. For example, insects or mites which eat or contact edible or ornamental plants can be controlled by applying the active compound to plant parts such as the seed, seedling, or cutting which is planted, the leaves, stems, fruits, grain, or roots, or to the soil in which the roots are growing. It is contemplated that the compounds might also be useful to protect textiles, paper, stored grain, seeds, domesticated animals, buildings or human beings by applying an active compound to or near such objects. The term “inhibiting an insect or mite” refers to a decrease in the numbers of living insects or mites, or a decrease in the number of viable insect or mite eggs. The extent of reduction accomplished by a compound depends, of course, upon the application rate of the compound, the particular compound used, and the target insect or mite species. At least an inactivating amount should be used. The terms “insect-inactivating amount” and “mite-inactivating amount” are used to describe the amount, which is sufficient to cause a measurable reduction in the treated insect or mite population. Generally an amount in the range from about 1 to about 1000 ppm by weight active compound is used. For example, insects and mites which can be inhibited include, but are not limited to: • Lepidoptera—Heliothis spp., Helicoverpa spp., Spodoptera spp., Mythimna unipuncta, Agrotis ipsilon, Earias spp., Euxoa auxiliaris, Trichoplusia ni, Anticarsia gemmatalis, Rachiplusia nu, Plutella xylostella, Chilo spp., Scirpophaga incertulas, Sesamia inferens, Cnaphalocrocis medinalis, Ostrinia nubilalis, Cydia pomonella, Carposina niponensis, Adoxophyes orana, Archips argyrospilus, Pandemis heparana, Epinotia aporema, Eupoecilia ambiguella, Lobesia botrana, Polychrosis viteana, Pectinophora gossypiella, Pieris rapae, Phyllonorycter spp., Leucoptera malifoliella, Phyllocnisitis citrella • Coleoptera—Diabrotica spp., Leptinotarsa decemlineata, Oulema oryzae, Anthonomus grandis, Lissorhoptrus oryzophilus, Agriotes spp., Melanotus communis, Popillia japonica, Cyclocephala spp., Tribolium spp. • Homoptera—Aphis spp., Myzus persicae, Rhopalosiphum spp., Dysaphis plantaginea, Toxoptera spp., Macrosiphum euphorbiae, Aulacorthum solani, Sitobion avenae, Metopolophium dirhodum, Schizaphis graminum, Brachycolus noxius, Nephotettix spp., Nilaparvata lugens, Sogatella furcifera, Laodelphax striatellus, Bemisia tabaci, Trialeurodes vaporariorum, Aleurodes proletella, Aleurothrixus floccosus, Quadraspidiotus perniciosus, Unaspis yanonensis, Ceroplastes rubens, Aonidiella aurantii • Hemiptera—Lygus spp., Eurygaster maura, Nezara viridula, Piezodorus guildingi, Leptocorisa varicornis • Thysanoptera—Frankliniella occidentalis, Thrips spp., Scirtothrips dorsalis • Isoptera—Reticulitermes flavipes, Coptotermes formosanus • Orthoptera—Blattella germanica, Blatta orientalis, Gryllotalpa spp. • Diptera—Liriomyza spp., Musca domestica, Aedes spp., Culex spp., Anopheles spp. • Hymenoptera—Iridomyrmex humilis, Solenopsis spp., Monomorium pharaonis, Atta spp., Pogonomyrmex spp., Camponotus spp. • Siphonaptera—Ctenophalides spp., Pulex irritans • Acarina—Tetranychus spp., Panonychus spp., Eotetranychus carpini, Phyllocoptruta oleivora, Aculus pelekassi, Brevipalpus phoenicis, Boophilus spp., Dermacentor variabilis, Rhipicephalus sanguineus, Amblyomma americanum, Ixodes spp., Notoedres cati, Sarcoptes scabiei, Dermatophagoides spp. […]
# [5] = tested on: Cabbage Looper (Trichoplusia ni); experiment: Insecticidal test for cabbage looper, treated cabbage leaf disc; parameters: key: A: 90–100; B: 80–89; C: 70–79; D: 60–69; E: 50–59; F: less than 50; G: Inactive; conditions: cabbage leaf-dip, 2nd instar larvae, 5 days
# From the text: as §1
# [6] = tested on: Beet Armyworm (Spodoptera exigua); experiment: Insecticidal test for beet armyworm, treated lepidopteran diet; parameters: key: A: 90–100; B: 80–89; C: 70–79; D: 60–69; E: 50–59; F: less than 50; G: Inactive; conditions: on diet surface, second-instar larvae, 5 days
# From the text: as §1
SMILES,SM: activity against two-spotted spider mite (% control rating) [1],WF: activity at 200 ppm against whitefly (% control rating) [2],CA: activity at 50 ppm against cotton aphid (% control rating) [3],TBW: activity at 400 ppm against tobacco budworm (% control rating) [4],CL: activity at 400 ppm against cabbage looper (% control rating) [5],BAW: activity at 400 ppm against beet armyworm (% control rating) [6]
Cc1cc(-c2ccc(OC(F)(F)C(F)C(F)(F)F)cc2)sc1-c1nc(-c2c(F)cccc2Cl)nn1C (stereo not drawn),A (90–100),F (less than 50),B (80–89),A (90–100),A (90–100),A (90–100)
Cc1sc(-c2cc(C(F)(F)F)ccc2F)cc1-c1nc(-c2c(F)cccc2Cl)nn1C,G,G,D (60–69),F (less than 50),G,G
Cc1cc(-c2ccc(OC(F)(F)C(Cl)Cl)cc2)sc1-c1nc(-c2c(F)cccc2Cl)nn1C,B (80–89),E (50–59),A (90–100),A (90–100),A (90–100),A (90–100)
Cc1sc(-c2ccc(Cl)cc2F)cc1-c1nc(-c2c(F)cccc2Cl)nn1C,A (90–100),F (less than 50),B (80–89),G,A (90–100),A (90–100)
Cc1cc(-c2ccc(OC(F)(F)C(F)Cl)cc2)sc1-c1nc(-c2c(F)cccc2Cl)nn1C (stereo not drawn),A (90–100),F (less than 50),D (60–69),A (90–100),A (90–100),A (90–100)
Cn1nc(-c2c(F)cccc2Cl)nc1-c1sc(-c2ccc(Br)cc2)c(Cl)c1Cl,G,E (50–59),C (70–79),G,A (90–100),A (90–100)
COCCOc1cccc(-c2cc(C)c(-c3nc(-c4c(F)cccc4Cl)nn3C)s2)c1,C (70–79),G,B (80–89),F (less than 50),G,F (less than 50)
Cc1c(-c2ccc(OC(F)(F)C(F)C(F)(F)F)cc2)csc1-c1nc(-c2c(F)cccc2Cl)nn1C (stereo not drawn),A (90–100),A (90–100),D (60–69),A (90–100),A (90–100),A (90–100)
Cc1sc(-c2ccc(OC(F)(F)C(F)C(F)(F)F)cc2)c(C)c1-c1nc(-c2c(F)cccc2Cl)nn1C (stereo not drawn),G,G,E (50–59),A (90–100),A (90–100),A (90–100)
Cn1nc(-c2c(F)cccc2Cl)nc1-c1sc(-c2ccc(Br)cc2)cc1Cl,A (90–100),G,B (80–89),A (90–100),A (90–100),A (90–100)
Cc1cc(-c2ccc3c(c2)COC3)sc1-c1nc(-c2c(F)cccc2Cl)nn1C,C (70–79),G,D (60–69),G,A (90–100),B (80–89)
Cc1c(-c2nc(-c3c(F)cccc3F)nn2C)csc1-c1ccc(C(F)(F)F)cc1Cl,G,G,E (50–59),G,A (90–100),G
Cc1c(-c2nc(-c3c(F)cccc3Cl)nn2C)csc1-c1cccc(OC(F)(F)F)c1,F (less than 50),B (80–89),A (90–100),G,A (90–100),G

# Source: patent US7056940B2, “Insecticidal 3-(2,6-disubstituted phenyl)-5-[5-arylthien-2-yl]-1,2,4-triazoles” (Dow AgroSciences LLC, priority 2001, dated 2006)
